Values quoted from earlier work, collected in PubChem BioAssay AID1259409 (Chemical Carcinogenesis Research Information System (CCRIS), 2018).

Test system: rodent chemically induced tumor inhibition, incidence and multiplicity
Assay: CCRIS tumor inhibitor studies
Conditions: Species: MOUSE, Promoter: NONE USED

With `COc1ccc(O)cc1` as the compound, how does the “tumour outcome (control, treated, inhibition, significance)” value (Carcinogen: BENZO[A]PYENE, 50-32-8, Dose [Inhibitor]: 0.028 MMOL/G DIET DAILY FOR 6 WK STARTING 14 D PRIOR TO THE FIRST UNTIL 1 D AFTER LAST CARCINOGEN DOSE FOLLOWED BY AN OB, Route [Inhibitor]: ORAL, Strain/Sex: STRAIN-A/FEMALE, Target Tissue: Type of Lesion: LUNG: ADENOMA, Dose [Carcinogen]: 3 MG IN 0.2 ML COTTONSEED OIL GIVEN 3X AT 2 WK INTERVALS) read?
Its value is 100%, 100%, 0%, not significant.

And the “tumour outcome (control, treated, inhibition, significance)” value (Carcinogen: BENZO[A]PYENE, 50-32-8, Dose [Inhibitor]: 0.028 MMOL/G DIET DAILY STARTING 2 WK AFTER FINAL CARCINOGEN DOSE THROUGH THE END OF THE STUDY (STUDY DURATION: 14 WK), Route [Inhibitor]: ORAL, Strain/Sex: ICR/FEMALE, Target Tissue: Type of Lesion: FORESTOMACH: PAPILLOMA, Dose [Carcinogen]: 1.5 MG IN 0.2 ML CORN OIL GIVEN 2/WK FOR 4 WK)?
Its value is 97%, 100%, -3%, not significant.

What about the “tumour outcome (control, treated, inhibition, significance)” value (Carcinogen: BENZO[A]PYRENE, 50-32-8, Dose [Inhibitor]: 0, 3.3 UMOL/G DIET BEGINNING 1 WK PRIOR TO CARCINOGEN TREATMENT AND CONTINUING FOR 1 WK POST CARCINOGEN TREATMENT FOLLOW, Route [Inhibitor]: ORAL, Strain/Sex: CD-1/FEMALE, Target Tissue: Type of Lesion: FORESTOMACH: PAPILLOMA, Dose [Carcinogen]: 1 MG IN 0.2 ML CORN OIL 2/WK FOR 4 WK) of the same compound?
Its value is 85%, 46%, 46%, p<0.01.

What about the “tumour outcome (control, treated, inhibition, significance)” value (Carcinogen: BENZO[A]PYRENE, 50-32-8, Dose [Inhibitor]: 0.03 MMOL/G OF DIET DAILY STARTING 7 D BEFORE AND CONTINUING THROUGH 3 D AFTER CARCINOGEN TREATMENT FOLLOWED BY OBSERVAT, Route [Inhibitor]: ORAL, Strain/Sex: ICR/FEMALE, Target Tissue: Type of Lesion: FORESTOMACH: NEOPLASM, Dose [Carcinogen]: 1 MG IN 0.2 ML CORN OIL 2/WK FOR 4 WK) of the same compound?
The value was 100%, 65%, 35%, p 0.053.

And the “tumour outcome (control, treated, inhibition, significance)” value (Carcinogen: BETA-PROPIOLACTONE, 57-57-8, Dose [Inhibitor]: 4.2 MG/G DIET DAILY FOR 14 WK STARTING 12 D PRIOR TO FIRST CARCINOGEN DOSE UNTIL 1 D AFTER LAST CARCINOGEN DOSE FOLLOWED, Route [Inhibitor]: ORAL, Strain/Sex: ICR/FEMALE, Target Tissue: Type of Lesion: FORESTOMACH: PAPILLOMA OR CARCINOMA, Dose [Carcinogen]: 2 MG IN 0.1 ML PROPYLENE GLYCOL 2/WK FOR 12 WK)?
The value was 100%, 41%, 59%, p<0.001.

What about the “tumour outcome (control, treated, inhibition, significance)” value (Carcinogen: BETA-PROPIOLACTONE, 57-57-8, Dose [Inhibitor]: 5.2 MG IN 0.1 ML PROPYLENE GLYCOL 2/WK FOR 12 WK GIVEN 1 HR PRIOR TO EACH CARCINOGEN ADMINISTRATION FOLLOWED BY AN OBSER, Route [Inhibitor]: GAVAGE, Strain/Sex: ICR/FEMALE, Target Tissue: Type of Lesion: FORESTOMACH: PAPILLOMA OR CARCINOMA, Dose [Carcinogen]: 2 MG IN 0.1 ML PROPYLENE GLYCOL 2/WK FOR 12 WK) of the same compound?
Its value is 100%, 61%, 39%, p<0.001.

What about the “tumour outcome (control, treated, inhibition, significance)” value (Carcinogen: BETA-PROPIOLACTONE, 57-57-8, Dose [Inhibitor]: 5.2 MG IN 0.1 ML PROPYLENE GLYCOL 2/WK FOR 12 WK GIVEN 4 HR PRIOR TO EACH CARCINOGEN ADMINISTRATION FOLLOWED BY AN OBSER, Route [Inhibitor]: GAVAGE, Strain/Sex: ICR/FEMALE, Target Tissue: Type of Lesion: FORESTOMACH: PAPILLOMA OR CARCINOMA, Dose [Carcinogen]: 2 MG IN 0.1 ML PROPYLENE GLYCOL 2/WK FOR 12 WK) of the same compound?
The value was 97%, 47%, 52%, p<0.001.
